The text below walks through data of patent US7700741B2, “High affinity anti-N1,N12-diacetylspermine monoclonal antibody” (Trans Genic Inc., priority 2005, dated 2010).

Experiment [1] has as its target anti-DiAcSpm monoclonal antibody. In words: Kit competitive ELISA with solid-phased AcSpm-HMC-peptide, crossreactivities of structure analogs. The experiment is classed as binding, mouse. As to conditions: for KiDiAcSpm/Ki"S" (%) . . . (1): 15 ng/ml antibody, 0.07 μg/ml solid-phased antigen; for Crossreactivity (1) × (2) (%): crossreactivity in urine, Ki ratio × urinary ratio. The method, then:
As a measuring kit, competitive ELISA using a solid-phased antigen AcSpm-HMC-peptide was performed based on known methods (Hiramatsu, K. et al., J. Biochem., 124, 231-236 (1998)). As the primary antibody, the monoclonal antibody prepared in Example 1 was used. As the secondary antibody, a commercial, goat-derived HRP-labeled anti-mouse IgG antibody (KPL) was used. The concentration of the solid-phased antigen was set at 0.07 μg/ml based on the concentration employed in a kit using anti-DiAcSpm polyclonal antibody. With respect to the concentration of anti-DiAcSpm monoclonal antibody to be used, 15 ng/ml was selected so that 40% of the maximum reaction efficiency (the point at which the absorbance at 492 nm becomes 1) is achieved when the concentration of the solid-phased antigen AcSpm-HMC-peptide is 0.07 μg/ml (FIG. 4). The dilution ratio of the goat-derived HRP-labeled anti-mouse IgG antibody was set at 2,500-fold from experience.
First, under the conditions established in (1) above, crossreactivities of structure analogs of DiAcSpm with DiAcSpm in urine samples were examined. Briefly, the 50% inhibition activity concentrations of DiAcSpm, N^1-AcSpm, DiAcSpd, N^1-AcSpd, N^8-AcSpd and DiAcPut in the kit were examined, and the crossreactivities of other structure analogs with DiAcSpm in urine were calculated. As a result, crossreactivity with N^1-AcSpd (whose crossreactivity is most apprehended) was 1.62%; crossreactivity with AcSpm was 0.54%; crossreactivity with DiAcSpd was 0.002%; crossreactivity with N^8-AcSpd was 0.01%; crossreactivity with AcPut was 0.01%; and the total crossreactivity was 2.17% (Table 2).

In experiment [2] the test system is anti-DiAcSpm polyclonal antibody. In words: Evaluation of immunizing antigen lots (inhibition of polyclonal antibody reaction with solid-phased antigen). The experiment is classed as binding, rabbit. To be noted: six lots compared; absorbance at 492 nm; FIG. 1. The method, then: The antigen was evaluated using DiAcSpm specific polyclonal antibody. Six lots of the antigen prepared in (1) above were examined on their activities to inhibit the reaction of anti-DiAcSpm polyclonal antibody with solid-phased AcSpm-HMC-AcSpm, by the method described later in Experimental Example 1.
AcSpm-HMC-peptide diluted with PBS (pH 7.0) to 0.07 μg/ml was added to 96-well microtiter plates at 50 μl/well as an antigen to be solid-phased, and left at 25° C. for 1.5 hours. Subsequently, the plates were washed with 0.05% Tween20-containing PBS (pH 7.0) (PBST) three times. Then, 0.5% gelatin-containing PBST (blocking solution) was added thereto at 200 μl/well and left at 25° C. for 1 hour. The plates were frozen at −30° C. overnight to freeze the blocking solution for freeze-drying to thereby prepare freeze-dried plates. To each well of dilution plates, 70 μl of 10 μg/ml anti-DiAcSpm polyclonal antibody and 70 μl of each lot of the immunizing antigen AcSpm-GMB-AMS-BSA with serially varied concentration were mixed and added, and left at 25° C. for 1 hour for pre-reaction. Subsequently, to each well of the freeze-dried plates prepared in Experimental Example 1, 300 μl of PBST was added, left at 25° C. for 30 minutes and then re-washed with PBST once. To each well of these plates, 50 μl of the pre-reacted reaction solution was added and left at 25° C. for 1 hour. Then, after washing with PBST three times, 50 μl of 80-fold dilution of HRP-labeled anti-rabbit IgG antibody (Bio-Rad) was added to each well and left at 25° C. for 1 hour. Subsequently, after washing with PBST three times, 100 μl of o-phenylenediamine solution diluted with 0.012% hydrogen peroxide-containing 0.1 M citrate phosphate buffer (pH 5.0) to 0.5 mg/ml was added to each well and left at 25° C. for 9 minutes. Then, absorbances at 492 nm were measured with an ELISA reader.

Experiment [3] has as its system anti-DiAcSpm monoclonal antibody CN647. The experiment can be described thus: Crossreactivity test on cloned wells (culture supernatant of CN647 strain). Type of experiment: binding, mouse. As to conditions: all three cloned wells, one designated CN647; FIG. 3. The method, then:
Briefly, cells were diluted with 20% FCS-containing RPMI medium to a density of 2.5 cells/ml and added to two 96-well culture plates at 200 μl/well. After five days, single colonies were examined. As a result, a single colony was confirmed in 17 wells out of the two 96-well plates. After 10 days, antibody titers to DiAcSpm were measured in culture supernatants by the method described in Experimental Example 2. Three wells were positive. Cells in these three wells were cultured further and tested for crossreactivities with AcSpm, N^1-AcSpd, N^8-AcSpd, DiAcSpd and AcPut by the method described in Experimental Example 3. […] Thus, antibodies sufficient to achieve the object have been obtained (FIG. 3). One of them was designated “established clone CN647”.
Antibody titers in diluted culture supernatants were measured by the method described in Experimental Example 2. Based on the results, the dilution rate with which the absorbance at 492 nm becomes 1 was selected. To each well of dilution plates, 70 μl of culture supernatant diluted at the dilution rate selected above and 70 μl of DiAcSpm solution with serially varied concentration or a structure analog of DiAcSpm (N^1-AcSpm, N^1-AcSpd, DiAcSpd, or the like) with serially varied concentration were mixed and added, and then left at 25° C. for 1 hour for pre-reaction. Subsequently, to each well of freeze-dried plates prepared in the same manner as in Experimental Example 1, 300 μl of BST was added, left at 25° C. for 30 minutes and re-washed with BST once. To the resultant plates, the pre-reacted reaction solution was added at 50 μl/well and left at 25° C. for 1 hour. Then, after washing with PBST three times, 50 μl of 80-fold dilution of HRP-labeled anti-mouse IgG antibody (KPL) was added to each well and left at 25° C. for 1 hour. […] Then, absorbances at 492 nm were measured with an ELISA reader.

For experiment [4], the system named is monoclonal antibodies to DiAcSpm (Fujiwara et al., Japanese Unexamined Patent Publication No. H11-75839). As to conditions: prior-art monoclonal antibodies; cited from earlier work.
The test system of experiment [5] is anti-DiAcSpm antibodies in culture supernatants of DiAcSpm positive clones. In words: Crossreactivity test on antibody production positive clones (culture supernatant, competitive ELISA). Type of experiment: binding, mouse. The text has this:
Out the DiAcSpm positive clones obtained above, 51 clones with relatively high antibody titers were selected and tested for crossreactivity with N^1-AcSpd (which is present in urine abundantly and believed to cross-react relatively easy from the results of researches made so far) by the method described later in Experimental Example 3. As a result, with respect to two wells, the 50% reaction inhibition activity of N^1-AcSpd was about 800 times as much as that of DiAcSpm; with respect to one well, the 50% reaction inhibition activity of N^1-AcSpd was 3,000 times as much as that of DiAcSpm; and with respect to the other wells, the 50% reaction inhibition activity of N^1-AcSpd was 0-200 times as much as that of DiAcSpm.
Antibody titers in diluted culture supernatants were measured by the method described in Experimental Example 2. Based on the results, the dilution rate with which the absorbance at 492 nm becomes 1 was selected. To each well of dilution plates, 70 μl of culture supernatant diluted at the dilution rate selected above and 70 μl of DiAcSpm solution with serially varied concentration or a structure analog of DiAcSpm (N^1-AcSpm, N^1-AcSpd, DiAcSpd, or the like) with serially varied concentration were mixed and added, and then left at 25° C. for 1 hour for pre-reaction. Subsequently, to each well of freeze-dried plates prepared in the same manner as in Experimental Example 1, 300 μl of BST was added, left at 25° C. for 30 minutes and re-washed with BST once. To the resultant plates, the pre-reacted reaction solution was added at 50 μl/well and left at 25° C. for 1 hour. Then, after washing with PBST three times, 50 μl of 80-fold dilution of HRP-labeled anti-mouse IgG antibody (KPL) was added to each well and left at 25° C. for 1 hour. Subsequently, after washing with PBST three times, 100 μl of o-phenylenediamine solution diluted with 0.012% hydrogen peroxide-containing 0.1 M citrate phosphate buffer (pH 5.0) to 0.5 mg/ml was added to each well and left at 25° C. for 9 minutes. Then, absorbances at 492 nm were measured with an ELISA reader.

Experiment [6] concerns monoclonal antibodies to DiAcSpm (Fujiwara et al., Japanese Unexamined Patent Publication No. H11-75839). The experiment can be described thus: Prior-art 50% binding inhibition of immunoreaction (Fujiwara et al. antibodies). As to conditions: crossreactivity with DiAcSpm taken as 100; N^1-AcSpd about 25 times DiAcSpm in urine. From the text: Recently, Fujiwara et al. prepared monoclonal antibodies to DiAcSpm (Japanese Unexamined Patent Publication No. H11-75839). With these antibodies, 50% binding inhibition activity against immunoreaction with DiAcSpm is only about 100 times as much as 50% binding inhibition activity against immunoreaction with N^1-acetylspermidine (hereinafter expressed as “N^1-AcSpd”) and is only about 20 times as much as 50% binding inhibition activity against immunoreaction with N^1-acetylspermine (hereinafter expressed as “N^1-AcSpm”) which is a monoacetylated form of spermine. Since the amount of N^1-AcSpd in the urine of healthy persons is about 25 times as much as the amount of DiAcSpm therein, the crossreactivity of the above antibody with N^1-AcSpd in the urine of healthy persons is 25 when the crossreactivity of the antibody with DiAcSpm therein is taken as 100. Therefore, the antibody may yield false-positive results. Accordingly, in order to enhance the measuring sensitivity for DiAcSpm, a DiAcSpm-specific monoclonal antibody whose crossreactivities with N^1-AcSpd and N^8-acetylspermidine (hereinafter expressed as “N^8-AcSpd”) are still lower is required.

In the case of `CC(=O)NCCCCNCCCNC(C)=O` [DiAcSpd, N^1,N^8-diacetylspermidine], in experiment [1], the “KiDiAcSpm/Ki"S" (%) . . . (1)” value is 0.0008% and the “Crossreactivity (1) × (2) (%)” value stood at 0.002%.

In the case of AcSpm-GMB-AMS-BSA [lot No. 5], in experiment [2], the “activity to inhibit the reaction of anti-DiAcSpm polyclonal antibody with solid-phased antigen” value (from here on “activity to inhibit the reaction”) was “comes next”.

For `CC(=O)NCCCNCCCCN` [N1-AcSpd, N^1-acetylspermidine], the “50% inhibition activity of DiAcSpm relative to that of the analog” value in experiment [3] is “about 1,000 times”. Besides, the “50% binding inhibition activity against immunoreaction with DiAcSpm relative to that with the analog” value in experiment [4] is “about 100 times”. Further, the “50% reaction inhibition activity of N^1-AcSpd relative to that of DiAcSpm” value in experiment [5] (one well of 51 selected clones) was 3,000 times; in experiment [5] (the other wells of 51 selected clones), 0-200 times; in experiment [5] (two wells of 51 selected clones) it was “about 800 times”. For the same compound, the “crossreactivity of the antibody with the analog in the urine of healthy persons” value in experiment [6] turned out to be 25. Moreover, in experiment [1], the “KiDiAcSpm/Ki"S" (%) . . . (1)” value amounted to 0.0610%. Besides, in experiment [1], the “Crossreactivity (1) × (2) (%)” value amounted to 1.62%.

As to `CC(=O)NCCCNCCCCNCCCNC(C)=O` [DiAcSpm, N^1,N^12-diacetylspermine], the “50% inhibition activity of DiAcSpm relative to that of the analog” value in experiment [3] was “about 100,000 times”. In addition, in experiment [1], the “KiDiAcSpm/Ki"S" (%) . . . (1)” value was found to be 100% and the “Crossreactivity (1) × (2) (%)” value is given as 100%.

As to `CC(=O)NCCCCNCCCN` [N8-AcSpd, N^8-acetylspermidine], in experiment [1], the “KiDiAcSpm/Ki"S" (%) . . . (1)” value amounted to 0.0003% and the “Crossreactivity (1) × (2) (%)” value is listed as 0.01%.

Consider AcSpm-GMB-AMS-BSA [lot No. 6], for which the “activity to inhibit the reaction” value in experiment [2] is “highest inhibition activity”.

As for AcSpm-GMB-AMS-BSA [lot No. 1], in experiment [2], the “activity to inhibit the reaction” value was “highest inhibition activity”.

As to `CC(=O)NCCCCN` [AcPut], in experiment [1], the “KiDiAcSpm/Ki"S" (%) . . . (1)” value amounted to 0.0001% and the “Crossreactivity (1) × (2) (%)” value was found to be 0.01%.

On to `CC(=O)NCCCNCCCCNCCCN` [AcSpm, N^1-acetylspermine], for which the “50% inhibition activity of DiAcSpm relative to that of the analog” value in experiment [3] is on record as “about 70 times”. Also, the “50% binding inhibition activity against immunoreaction with DiAcSpm relative to that with the analog” value in experiment [4] is “about 20 times”. For the same compound, in experiment [1], the “KiDiAcSpm/Ki"S" (%) . . . (1)” value stood at 1.7072% and the “Crossreactivity (1) × (2) (%)” value worked out at 0.54%.
